Broadly, the IC50 is the concentration that inhibits the measured activity by half.

Experimental findings from paper PMC6624297 (Cell Death & Disease, 2019) are described below.

Molecules are shown by their SMILES.

One experiment deals with GES-1 cell line. As to the kind of experiment: Selectivity index against GES-1. It is filed as cell-based. To be noted: SI = CC50/IC50.
Another experiment concerns OVCAR-3 cells. Briefly: MTT assay OVCAR-3. It is filed as cell-based. The conditions noted are these: Homo sapiens, 24h of treatment, mean ± SD. For orientation: Formazan colour is commonly taken as a measure of viable cells.
A further experiment relates to HCT-116 cells. Briefly: MTT assay HCT-116. In kind it is cell-based. To be noted: Homo sapiens, 24h of treatment, mean ± SD.
The subject of a further experiment is IOSE80 cell line. Briefly: Selectivity index against IOSE80. It is filed as cell-based. To be noted: SI = CC50/IC50.
Experiment [1] deals with H460 cells. Briefly: Cell cycle PI staining FACS, H460. It is filed as cell-based, human. The conditions noted are these: H460, 0.5, 1.0, 1.5 μM, 24 h. The text has this: TS is a crucial enzyme in the DNA synthesis stage. When it is inhibited, first to show cell cycle arrest at G1/S phase. […] Flow cytometry show (Fig. 3), as the concentration of the compound increases, the cells in the G0/G1 phase increase, the cells in the S phase and the G2/M phase decrease. Eventually, the proliferation of cancer cells was inhibited by the G1/S phase arrest of the compound L14e.

The test system of experiment [2] is H460 cells. Briefly: Annexin V/PI staining flow cytometry, H460. In kind it is cell-based, human. To be noted: 24 h. The protocol:
The density of the A549 cells and H460 in the logarithmic growth phase was adjusted to 1 × 10^6 cells/mL, and a total of 1 mL of cell suspension and 1 mL of L14e at different concentrations were added into each well with the final compound L14e concentration in each group as 0, 0.5, 1.0, and 1.5 μM. Details are given in Supplementary Materials and Methods.
The density of the A549 cells and H460 in the logarithmic growth phase was adjusted to 1 × 10^6 cells/mL, and then the cell suspension was seeded into a 6-well plate (Becton Dickinson and Company, USA). A total of 1 mL of cell suspension and 1 mL of compound L14e at different concentrations were added into each well with the final compound L14e concentration in each group as 0 μM, 0.5 μM, 1.0 μM, and 1.5μM. After cells were incubated for 24 h at 37 °C, 1 mL of cell suspension per well was collected and centrifuged at 1000 r/min for 10 min at 4°C, and the supernatant was removed. Then, 1 mL of cold PBS was added to the cell pellet, and was shaken lightly to re-suspend the cells. The cells were centrifuged at 1000 r/min at 4 °C for 10 min, and the supernatant was removed. These steps were repeated twice. The cells were re-suspended in 150µL of PBS, 10 µL of fluorescein isothiocyanate (FITC)-labeled Annexin V (Annexin V-FITC) (Promega Corporation, USA) and 5 µL of PI (Promega Corporation, USA) were added. The mixture was gently mixed and incubated in the dark at room temperature for 10 min then stained cells were analyzed using flow cytometry to test the levels of apoptotic cells (Becton Dickinson and Company, USA; FACS Calibur).
For orientation: In flow cytometry, cells or beads pass a laser one at a time.

The next experiment deals with A549 cells. Briefly: MTT assay A549. In kind it is cell-based, human.

`O=C(Nc1cccc(Cl)c1)Nc1ccccc1NS(=O)(=O)c1c[nH]c(=O)[nH]c1=O` [Compound L14e, N'-(3-chlorophenyl)-2-(2,4-dihydroxypyrimidine-5-sulfonamido)phenyl urea]: the “SI (Selectivity index) GES-1” value with GES-1 cell line was determined as 8.58. In addition, the IC50 in the experiment on OVCAR-3 cells is 1680 ± 310 nM; in the experiment with HCT-116 cells, 1980 ± 180 nM; in the experiment with A549 cells (Homo sapiens, A549, 24h of treatment, mean ± SD), 670 ± 220 nM. For the same compound, in the experiment on IOSE80 cell line, the “SI (Selectivity index) IOSE80” value came out at 8.79. The “effect on cell cycle” value with H460 cells [1] is listed as “arrest the cell cycle in the G1/S phase”. For the same compound, the apoptotic rate with H460 cells [2] (H460, 0.5 μM) worked out at 6.4%; in the experiment with H460 cells [2] (H460, 1.0 μM) it was 21.8%; in the experiment on H460 cells [2] (H460, 1.5 μM), 24.4%. Also, the “early apoptosis rate (Q4, Annexin V [+] PI [−])” value is given as 3.9% in the experiment with H460 cells [2] (H460, 0.5 μM); 15.1% with H460 cells [2] (H460, 1.0 μM); 17.3% in the experiment with H460 cells [2] (H460, 1.5 μM). Besides, in the experiment with A549 cells, the “anti-proliferative potency relative to PTX, A549” value was “nearly five times higher”.
